Measured values as given in publication PMC7770674, “A Combinative Assembly Strategy Inspired Reversibly Borate-Bridged Polymeric Micelles for Lesion-Specific Rapid Release of Anti-Coccidial Drugs” (Nano-Micro Letters, 2020).

System: Caco2 cells
Assay: In vitro cytotoxicity MTT assay
Type: cell-based, human
Conditions: DIC concentration 100 μg mL^−1, 48 h
Method: For cell studies, human colon cancer cell line Caco2 cells (Shanghai Institute of Biochemistry and Cell Biology, Chinese Academy of Sciences, Shanghai, China) were cultured in DMEM medium supplemented with 10% FBS, 100 U mL^−1 penicillin, and 100 μg mL^−1 streptomycin at 37 °C under an atmosphere of 5% CO2 and 95% relative humidity. In vitro cytotoxicity of free DIC, blank micelles and DIC-encapsulated micelles were evaluated by 3-(4,5-dimethylthiazol-2-yl)-2,5-diphenyltetrazolium bromide (MTT) assay. Caco2 cells were planted in 96-well plate at a density of 5 × 10^3 cells per well and cultured for another 24 h. The cells were treated with free DIC, PCS/DIC micelles, PCS + DIC mixture, SPCS/DIC micelles and SPCS + DIC mixture at a range of DIC concentrations (0.001–100 μg mL^−1), or PCS and SPCS blank micelles at equivalent concentrations of corresponding drug-loaded micelles for 48 h. Thereafter, 20 µL of MTT solution (5 mg mL^−1) was added to each well and incubated with cells for another 4 h at 37 °C. The culture medium was then removed, and the formed dark blue formazan crystals were dissolved with 100 µL of DMSO. The absorbance at 570 nm was recorded using a microplate reader (EL800, BIO-TEK Instruments Inc., USA). Untreated cells were used as control, and cell viability (%) was calculated according to Eq. (3).3 Cellviability(%)=Atest/Acontrol×100%

In the case of N#CC(c1ccc(Cl)cc1)c1c(Cl)cc(-n2ncc(=O)[nH]c2=O)cc1Cl (stereo not shown) [Free DIC, Diclazuril], the cells survived is reported as “less than 10%”.
